The values that follow come from ChEMBL document CHEMBL1201862, “PubChem BioAssay data set” (2004).

Among the test systems are LOX IMVI; NCI-H226; COLO 205; BT-549; MDA-MB-435; HCT-15; SK-MEL-5; RPMI-8226; Malme-3M; KM12; Hs-578T; OVCAR-5; K562; UACC-62; SK-MEL-28; ACHN; 786-0; NCI-H23; HCC 2998.
Holding throughout (assay): DTP human tumour cell line panel, 48 h

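Following 48 hours of exposure in 96-well plates, responses at five concentrations were used to interpolate endpoints linearly. GI50 is the concentration that inhibits growth by half.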 The source made the active and inactive calls. No stated cut-off is given here; in the data, active = GI50 up to about 1.1 µM and inactive = higher. Bounds are passed on as bounds.

Broadly, the GI50 is the concentration that inhibits growth by half. As for `CN1CCN(c2ccncc2S(=O)(=O)N2CCN(C)CC2)CC1`, the GI50 was > 100 µM (inactive) in the assay on LOX IMVI; > 100 µM (inactive) in the assay on NCI-H226; > 100 µM (inactive) with COLO 205; > 100 µM (inactive) with BT-549; > 100 µM (inactive) in the assay on MDA-MB-435; over 100 µM with HCT-15. In addition, the GI50 with SK-MEL-5, in the assay with RPMI-8226, in the assay with Malme-3M, with KM12, in the assay with Hs-578T and in the assay on OVCAR-5 was > 100 µM (inactive) each time. Also, the GI50 in the assay on K562, in the assay on UACC-62, in the assay on SK-MEL-28, with ACHN, with 786-0 and with NCI-H23 was > 100 µM (inactive) throughout.

In the case of `Cc1cc(NS(=O)(=O)c2ccc(NC(NC(=O)OC(C)C)(C(F)(F)F)C(F)(F)F)cc2)nc(C)n1`, the GI50 in the assay on LOX IMVI is > 100 µM (inactive); with NCI-H226, > 100 µM (inactive); with COLO 205, > 100 µM (inactive); with MDA-MB-435 it was > 100 µM (inactive); in the assay with HCT-15 it was over 100 µM; in the assay with SK-MEL-5, > 100 µM (inactive). Further, the GI50 with RPMI-8226, with Malme-3M, in the assay on KM12, with Hs-578T, in the assay with OVCAR-5 and with HCC 2998 was > 100 µM (inactive) in each case. Moreover, the GI50 with K562, with UACC-62, in the assay on SK-MEL-28, with ACHN, with 786-0 and in the assay on NCI-H23 was > 100 µM (inactive) throughout.

Turning to `CCCCn1c2c(c3ccccc3c1=O)C(=O)c1ccccc1-2`, the GI50 in the assay with LOX IMVI was > 100 µM (inactive); with NCI-H226, > 100 µM (inactive); in the assay with COLO 205, 20.4 µM (inactive); in the assay on BT-549 it was > 100 µM (inactive); with MDA-MB-435, > 100 µM (inactive); in the assay on HCT-15, over 100 µM. Further, the GI50 in the assay with SK-MEL-5 is 5.98 µM (inactive); in the assay on RPMI-8226 it was > 100 µM (inactive); in the assay with Malme-3M, > 100 µM (inactive); in the assay with KM12, > 100 µM (inactive); in the assay on Hs-578T, 33.7 µM (inactive); with OVCAR-5, > 100 µM (inactive). Also, the GI50 with K562 was > 100 µM (inactive); in the assay with UACC-62, > 100 µM (inactive); in the assay with SK-MEL-28 it was > 100 µM (inactive); in the assay on 786-0, 25.3 µM (inactive); in the assay with NCI-H23 it was 45.2 µM (inactive).

Regarding `COc1ccc(/C=C2\N=C(SC)N(CN3CCCCC3)C2=O)cc1`, the GI50 is > 100 µM (inactive) in the assay with LOX IMVI; > 100 µM (inactive) in the assay with NCI-H226; > 100 µM (inactive) with COLO 205; > 100 µM (inactive) in the assay on MDA-MB-435; over 100 µM in the assay with HCT-15; > 100 µM (inactive) in the assay with SK-MEL-5. In addition, the GI50 with RPMI-8226, with Malme-3M, in the assay on KM12, in the assay on Hs-578T, in the assay with OVCAR-5 and in the assay with K562 was > 100 µM (inactive) in each case. Further, the GI50 in the assay with UACC-62, in the assay on SK-MEL-28, with ACHN, in the assay on 786-0 and in the assay on NCI-H23 was > 100 µM (inactive) in each case.

With `CCNC1=C(NC(=O)CCl)C(=O)c2ccccc2C1=O`, the GI50 with NCI-H226 was 22 µM (inactive); with COLO 205, > 10 µM (inactive); in the assay with BT-549, > 10 µM (inactive); in the assay with MDA-MB-435 it was 19.1 µM (inactive); in the assay on HCT-15, 18.5 µM; in the assay with SK-MEL-5 it was 16.7 µM (inactive). Further, the GI50 in the assay on RPMI-8226 is 34 µM (inactive); with Malme-3M it was 19.9 µM (inactive); in the assay with KM12, 17.1 µM (inactive); in the assay with Hs-578T it was 24.2 µM (inactive); with OVCAR-5, 19.6 µM (inactive); in the assay with HCC 2998, > 10 µM (inactive). Moreover, the GI50 in the assay with K562 is 25.5 µM (inactive); in the assay with SK-MEL-28, 17.6 µM (inactive); with ACHN it was 18 µM (inactive); with 786-0, 34.4 µM (inactive); in the assay with NCI-H23 it was 19 µM (inactive).

As to `COc1ccc2cc(C(=O)O)ccc2c1OC`, the GI50 was > 100 µM (inactive) in the assay with NCI-H226; > 100 µM (inactive) with COLO 205; > 100 µM (inactive) in the assay with BT-549; > 100 µM (inactive) in the assay with MDA-MB-435; over 100 µM with HCT-15; > 100 µM (inactive) in the assay on SK-MEL-5. The GI50 in the assay on Malme-3M, with KM12, in the assay with Hs-578T, in the assay with OVCAR-5, with HCC 2998 and with K562 was > 100 µM (inactive) each time. Moreover, the GI50 in the assay with UACC-62, with ACHN, with 786-0 and in the assay with NCI-H23 was > 100 µM (inactive) in each case.

`CCOC(=O)/C(C#N)=C/N(CC)/N=C/c1ccccc1`: the GI50 with NCI-H226 was > 100 µM (inactive); with COLO 205 it was > 100 µM (inactive); with BT-549 it was > 100 µM (inactive); with MDA-MB-435, > 100 µM (inactive); with HCT-15, over 100 µM; in the assay with SK-MEL-5 it was > 100 µM (inactive). In addition, the GI50 is > 100 µM (inactive) with RPMI-8226; > 100 µM (inactive) with Malme-3M; > 100 µM (inactive) with KM12; 54.7 µM (inactive) with Hs-578T; > 100 µM (inactive) in the assay on OVCAR-5; > 100 µM (inactive) in the assay with HCC 2998. In addition, the GI50 was > 100 µM (inactive) with K562; > 100 µM (inactive) with UACC-62; > 100 µM (inactive) in the assay with SK-MEL-28; > 100 µM (inactive) in the assay on ACHN; 86.9 µM (inactive) with 786-0; > 100 µM (inactive) with NCI-H23.

Regarding `NC(CCCCNC(=O)OCc1ccccc1)C(=O)NC(CCCCNC(=O)OCc1ccccc1)C(=O)ON1C(=O)CCC1=O` (stereo not given), the GI50 was > 100 µM (inactive) in the assay with NCI-H226; > 100 µM (inactive) in the assay on COLO 205; > 100 µM (inactive) with BT-549; over 100 µM in the assay on HCT-15; > 100 µM (inactive) in the assay on SK-MEL-5; > 100 µM (inactive) in the assay on RPMI-8226. Moreover, the GI50 with Malme-3M is 61.4 µM (inactive); in the assay on KM12 it was > 100 µM (inactive); in the assay with Hs-578T it was > 100 µM (inactive); in the assay on OVCAR-5, > 100 µM (inactive); in the assay on HCC 2998 it was > 100 µM (inactive); in the assay on K562, > 100 µM (inactive). In addition, the GI50 with UACC-62, in the assay on SK-MEL-28, in the assay on ACHN, in the assay with 786-0 and in the assay on NCI-H23 was > 100 µM (inactive) each time.

Consider `CCOC1CC(C)N(C(=O)c2ccccc2)O1` (stereo not given), for which the GI50 with NCI-H226 is > 100 µM (inactive); in the assay with BT-549, > 100 µM (inactive); with MDA-MB-435, > 100 µM (inactive); in the assay on SK-MEL-5, > 100 µM (inactive); with Malme-3M, > 10 µM (inactive); with KM12, > 100 µM (inactive). Moreover, the GI50 in the assay on Hs-578T, with OVCAR-5, in the assay on HCC 2998, in the assay on K562, in the assay with UACC-62 and with SK-MEL-28 was > 100 µM (inactive) in each case. For the same compound, the GI50 in the assay on ACHN, in the assay on 786-0 and in the assay on NCI-H23 was > 100 µM (inactive) throughout.

Turning to `CC(C)(C)[Si](C)(C)OCC1CCC(n2cnc3c(=O)[nH]cnc32)O1` (stereo not given), the GI50 is > 100 µM (inactive) in the assay on LOX IMVI; 77.6 µM (inactive) with NCI-H226; > 100 µM (inactive) with COLO 205; > 100 µM (inactive) in the assay on MDA-MB-435; over 100 µM with HCT-15; 32.5 µM (inactive) with SK-MEL-5. The GI50 in the assay with RPMI-8226 was 65.5 µM (inactive); in the assay on Malme-3M it was 78.9 µM (inactive); with KM12, > 100 µM (inactive); with Hs-578T, 58.2 µM (inactive); in the assay on OVCAR-5, > 100 µM (inactive); in the assay with HCC 2998 it was > 100 µM (inactive). For the same compound, the GI50 was 85.7 µM (inactive) with K562; 35.7 µM (inactive) in the assay with UACC-62; > 100 µM (inactive) in the assay on SK-MEL-28; > 100 µM (inactive) in the assay with ACHN; > 100 µM (inactive) in the assay with 786-0; > 100 µM (inactive) with NCI-H23.

As to `Cc1ccccc1NC(=N)Nc1ccccc1C`, the GI50 was > 100 µM (inactive) with LOX IMVI; > 100 µM (inactive) in the assay with NCI-H226; > 100 µM (inactive) in the assay with COLO 205; > 100 µM (inactive) in the assay with MDA-MB-435; over 100 µM with HCT-15; > 100 µM (inactive) in the assay on SK-MEL-5. Further, the GI50 in the assay with RPMI-8226 is > 100 µM (inactive); in the assay on Malme-3M it was > 100 µM (inactive); in the assay with KM12, > 100 µM (inactive); in the assay with Hs-578T it was > 100 µM (inactive); with OVCAR-5 it was > 100 µM (inactive); in the assay on HCC 2998 it was 21.9 µM (inactive). Moreover, the GI50 in the assay on K562, in the assay on UACC-62, in the assay with SK-MEL-28, in the assay with ACHN, with 786-0 and with NCI-H23 was > 100 µM (inactive) throughout.

As for `CCOc1ccc(NCc2cc(OC)c(OC)c(OC)c2)cc1`, the GI50 was 0.643 µM (active) in the assay with LOX IMVI; 10.3 µM (inactive) in the assay with NCI-H226; 0.384 µM (active) in the assay on COLO 205; 0.12 µM (active) in the assay with BT-549; 0.335 µM in the assay with HCT-15; 0.506 µM (active) in the assay with SK-MEL-5. Also, the GI50 with RPMI-8226 is 0.944 µM (active); in the assay with KM12, 0.276 µM (active); in the assay on Hs-578T, 1.38 µM (inactive); in the assay with HCC 2998, 0.771 µM (active); in the assay on K562, 0.215 µM (active); in the assay on UACC-62, 0.423 µM (active). Also, the GI50 in the assay on SK-MEL-28 is 2.57 µM (inactive); in the assay on ACHN, 10.7 µM (inactive); in the assay with 786-0, 0.723 µM (active); in the assay with NCI-H23, 1.24 µM (inactive).
